Experiments:
C3H/HeN mice [1] = assay: Telogen Conversion Assay; type: in vivo; conditions: for Results: number of days following initiation of treatment when hair growth appeared in 50% of the mice: topical once daily for 5 days, propylene glycol 30%/ethanol 70%
Text: The Telogen Conversion Assay measures the potential of a compound (hereinafter referred to as the “test compound”) to convert mice in the resting stage of the hair growth cycle (“telogen”) to the active stage of the hair growth cycle (“anagen”). This assay takes advantage of the fact that the fur (i.e. hair) of 40-day-old C3H/HeN mice is in the telogen phase. This phase usually continues until about 75 days of age, at which point, anagen naturally occurs in these animals. In this assay, selected areas of 40-day-old mice (approximate) are shaved, contacted with a test agent, or a control, and the difference in the rate of hair growth is measured (i.e. induction of the anagen phase). The first sign of anagen is the darkening of skin color as melanocytes in the follicles start to synthesize melanin, in preparation for the production of pigmented hairs.
Female C3H/HeN mice, 7 weeks old (Charles River Laboratories, Raleigh, N.C.) were used for the study. Fur was clipped from the dorsal region of the mice prior to initiation of the study. Only mice with pink skin, a visual indication of the telogen phase, were selected for inclusion in the study.
Test compounds (from Table A) were dissolved in a vehicle consisting of propylene glycol (30%) and ethanol (70%). A test compound dissolved in vehicle, or a vehicle control (30/70 propylene glycol/ethanol, unless otherwise specified) was applied topically to the clipped dorsal region of the mice in each test group (7-10 mice) in a volume of 20 μl/cm^2. Treatments were applied once daily for 5 days.
The treatment area was observed and graded for signs of hair growth. The hair growth response was quantified by recording, for each animal, the day on which signs of hair growth first appeared over the treated area. The first sign of anagen was the darkening of skin color as melanocytes in the follicles started to synthesize melanin. The response time was measured as the number of days between initiation of treatment and when hair growth was present in 50% of the mice in a given group.
The results are reported as the number of days following initiation of treatment when hair growth appeared in 50% of the mice in a given group.

C3H/HeN mice [2] = assay: Telogen Conversion Assay; type: in vivo; conditions: Experiment 8; for Results: number of days following initiation of treatment when hair growth appeared in 50% of the mice: topical once daily for 5 days, solvent polyethylene glycol 30 v/v %, ethanol 30 v/v %, transcutanol 40 v/v %, vehicle 28

For `Cn1nc(O[C@@H]2c3cc(S(=O)(=O)c4cccc(O)c4)ccc3OC(C)(C)[C@@]2(C)O)ccc1=O` [Compound #1, (3S,4R)-3,4-dihydro-4-(2,3-dihydro-2-methyl-3-oxopyridazin-6-yl)oxy-3-hydroxy-6-(3-hydroxyphenyl)sulphonyl-2,2,3-trimethyl-2H-benzo[b]pyran], the “Relative efficacy in the telogen conversion assay (summary)” value (C3H/HeN mice [1]; 15 experiments, compared with the other potassium channel openers of Table A) was “showed the highest relative efficacy in the model”, the “Results: number of days following initiation of treatment when hair growth appeared in 50% of the mice” value (“Results: number … in 50% of the mice” below) (C3H/HeN mice [1]; Experiment 1, 1.0 w/v %, terminated early) was greater than 35 days and the “Induction of anagen (conclusion in words)” value (“Induction of anagen” below) (C3H/HeN mice [1]; Experiment 2) was “exhibited signs of anagen sooner than those receiving Compound #6”. For the same compound, the “Results: number … in 50% of the mice” value (C3H/HeN mice [1]; Experiment 2, 0.3 w/v %, vehicle 25) was 11 days, the “Results: number … in 50% of the mice” value (C3H/HeN mice [1]; Experiment 2, 1.0 w/v %, vehicle 25) was 11 days and the “Results: number … in 50% of the mice” value (C3H/HeN mice [1]; Experiment 3, 0.1 w/v %, terminated early) was greater than 35 days. For the same compound, the “Results: number … in 50% of the mice” value (C3H/HeN mice [1]; Experiment 3, 0.3 w/v %, terminated early) was greater than 35 days, the “Results: number … in 50% of the mice” value (C3H/HeN mice [1]; Experiment 3, 1.0 w/v %, terminated early) was greater than 35 days and the “Results: number … in 50% of the mice” value (C3H/HeN mice [1]; Experiment 4, 0.3 w/v %, vehicle >33) was 26 days. For the same compound, the “Results: number … in 50% of the mice” value (C3H/HeN mice [1]; Experiment 4, 1.0 w/v %, vehicle >33) was 26 days, the “Induction of anagen” value (C3H/HeN mice [1]; Experiment 4, terminated early) was “induced anagen at each of the test concentrations” and the “Results: number … in 50% of the mice” value (C3H/HeN mice [1]; Experiment 5, 0.03 w/v %, vehicle >35) was greater than 35 days. For the same compound, the “Results: number … in 50% of the mice” value (C3H/HeN mice [1]; Experiment 5, 0.1 w/v %, vehicle >35) was greater than 35 days, the “Results: number … in 50% of the mice” value (C3H/HeN mice [1]; Experiment 5, 0.3 w/v %, vehicle >35) was greater than 35 days and the “Results: number … in 50% of the mice” value (C3H/HeN mice [1]; Experiment 6, 0.003 w/v %, vehicle >35) was greater than 35 days. The “Results: number … in 50% of the mice” value (C3H/HeN mice [1]; Experiment 6, 0.03 w/v %, vehicle >35) was greater than 35 days, the “Results: number … in 50% of the mice” value (C3H/HeN mice [1]; Experiment 6, 0.3 w/v %, vehicle >35) was 28 days and the “Induction of anagen” value (C3H/HeN mice [1]; Experiment 6, terminated early, up to day 35) was “induced anagen despite the early termination of the experiment”. The “Results: number … in 50% of the mice” value (C3H/HeN mice [1]; Experiment 7, 0.003 w/v %, vehicle 29) was 26 days, the “Results: number … in 50% of the mice” value (C3H/HeN mice [1]; Experiment 7, 0.03 w/v %, vehicle 29) was 24 days and the “Results: number … in 50% of the mice” value (C3H/HeN mice [1]; Experiment 7, 0.3 w/v %, vehicle 29) was 19 days. The “Induction of anagen” value (C3H/HeN mice [1]; Experiment 7, proceeded to completion) was “induced anagen at all of the concentrations tested”, the “Results: number … in 50% of the mice” value (C3H/HeN mice [1]; Experiment 8, 1.0 w/v %, vehicle >35) was 18 days and the “Results: number … in 50% of the mice” value (C3H/HeN mice [1]; Experiment 9, 0.03 w/v %, terminated early) was greater than 33 days. For the same compound, the “Results: number … in 50% of the mice” value (C3H/HeN mice [1]; Experiment 9, 0.3 w/v %, terminated early) was greater than 33 days, the “Results: number … in 50% of the mice” value (C3H/HeN mice [1]; Experiment 9, 1.0 w/v %, terminated early) was greater than 33 days and the “Results: number … in 50% of the mice” value (C3H/HeN mice [1]; Experiment 10, 0.1 w/v %, terminated early) was greater than 34 days. The “Results: number … in 50% of the mice” value (C3H/HeN mice [1]; Experiment 10, 0.3 w/v %, terminated early) was greater than 34 days, the “Induction of anagen” value (C3H/HeN mice [1]; Experiment 11) was “induced anagen” and the “Results: number … in 50% of the mice” value (C3H/HeN mice [1]; Experiment 11, 0.3 w/v %, vehicle 56) was 25 days. The “Induction of anagen” value (C3H/HeN mice [1]; Experiment 12) was “did not induce anagen”, the “Results: number … in 50% of the mice” value (C3H/HeN mice [1]; Experiment 12, 1.0 w/v %, vehicle 37) was 39 days and the “Induction of anagen” value (C3H/HeN mice [1]; Experiment 13) was “induced anagen”. For the same compound, the “Results: number … in 50% of the mice” value (C3H/HeN mice [1]; Experiment 13, 1.0 w/v %, vehicle 28) was 14 days, the “Induction of anagen” value (C3H/HeN mice [1]; Experiment 14) was “induced anagen” and the “Results: number … in 50% of the mice” value (C3H/HeN mice [1]; Experiment 14, 1.0 w/v %, vehicle 29) was 25 days. For the same compound, the “Results: number … in 50% of the mice” value (C3H/HeN mice [1]; Experiment 15, 0.3 w/v %, vehicle >30) was 16 days, the “Results: number … in 50% of the mice” value (C3H/HeN mice [1]; Experiment 15, 1.0 w/v %, vehicle >30) was 23 days and the “Induction of anagen” value (C3H/HeN mice [1]; Experiment 15, terminated early) was “induced anagen at both of the concentrations tested”. The “Results: number … in 50% of the mice” value (C3H/HeN mice [2]; 0.3 w/v %) was 21 days, the “Results: number … in 50% of the mice” value (C3H/HeN mice [2]; 1.0 w/v %) was 21 days and the “Induction of anagen” value (C3H/HeN mice [2]; transcutol, ethanol, polypropylene glycol vehicle) was “exhibited activity at all doses tested in this vehicle”.

Reference: patent US20050182065A1, “Method of stimulating hair growth” (priority 2004, published 2005)
